The text below walks through data of paper PMC7707092, “Discovery and characterization of ORM‐11372, a novel inhibitor of the sodium‐calcium exchanger with positive inotropic activity” (British Journal of Pharmacology, 2020).

Assay [1] deals with T1, rat NCX 1.1 current (I NCX) (Rattus norvegicus, UniProt Q01728).
T1 construct: In rat primary ventricular CMs, the magnitude of outward I NCX; endogenous in cells; host or cells: freshly isolated left ventricular cardiomyocytes of male Wistar rats
As to the kind of experiment: NCX current (I NCX), whole‐cell patch‐clamp in rat ventricular cardiomyocytes. In kind it is cell-based. The protocol:
Rats were anaesthetized with sodium thiopental (0.1 g·kg^−1, i.p.) and injected with heparin sodium (500 IU, i.v.). Hearts were rapidly excised, mounted via the aorta on a Langendorff apparatus, and retrogradely perfused at 37°C with the Krebs–Henseleit solution for 5 min, with Krebs‐Henseleit solution (composition (in mM): 118.5 NaCl, 4 KCI, 2 CaCl2, 1 MgSO4, 1.2 NaH2PO4, 25 NaHCO3, and 11.1 glucose), pH 7.4 when saturated with a mixture of 95% O2 and 5% CO2. The perfusion of the heart was continued using Ca^2+‐free Krebs–Henseleit solution for 10 min, and completed by the addition of 0.05% collagenase (type I), 0.05% hyaluronidase, and 200‐μM CaCl2, for a further 10 min. Subsequently, the left ventricular myocardium was minced and gently agitated. Dissociated cells were stored at room temperature in a solution containing (in mM) 89 KOH, 70 glutamate, 15 taurine, 30 KCI, 10 KH2PO4,10 HEPES, 0.5 MgCl2, 11 glucose, and 0.5 EGTA, and the pH was set to 7.3 using KOH. […] One drop of the cell suspension was placed in a recording chamber and mounted on the stage of an inverted microscope (Olympus IX51, Olympus, Japan), and the individual myocytes were allowed to settle and adhere to the bottom of the chamber for at least 5 min before initiating superfusion.
(§1) Manual patch‐clamp recordings of membrane currents (I NCX, L‐type Ca^2+ channel current [I CaL], human cardiac sodium 1.5 current [I Na], and I hERG) were undertaken using either an Axopatch 200B or Axopatch ID amplifier (Molecular Devices, USA), using the whole‐cell configuration. Cells were at least initially (except when recording I Na) perfused with an extracellular solution consisting of (in mM) 143 NaCl, 4 KCl, 1.8 CaCl2, 1.2 MgCl2, 5 glucose, and 10 HEPES (pH 7.4 with NaOH; osmolarity adjusted to 301 ± 3 mOsm). A slightly modified version was used for the rat ventricular CMs (in mM: 144 NaCl, 0.4 NaH2PO4, 4.0 KCl, 1.8 CaCl2, 0.53 MgSO4, 5.5 glucose, and 5.0 HEPES). Patch pipettes were pulled with a P‐2000 or P‐97 micropipette puller (Sutter Instruments, USA) from borosilicate glass capillaries and had resistances of between 2 and 4 MΩ when filled with any of the pipette solutions (see below). The data were filtered at 1 or 2 kHz and digitized at 10 kHz with acquisition and analysis performed by use of pClamp software (Versions 8–10; Molecular Devices; RRID:SCR_011323).
After the establishment of the whole‐cell configuration with hiPSC‐derived CMs or rat ventricular myocytes, the extracellular solution was switched to a K^+‐free bath solution as described earlier (Hobai, Khananshvili, & Levi, 1997; Jost et al., 2013). The solution was composed of (in mM) 135 NaCl, 10 CsCl, 1 CaCl2, 1 MgCl2, 0.2 BaCl2, 0.33 NaH2PO4, 10 TEACI, 10 HEPES, and 10 glucose supplemented with 20‐μM ouabain, 50‐μM lidocaine, and 1‐μM nisoldipine or 2‐μM nitrendipine at pH 7.0 (osmolarity adjusted to 301 ± 3 mOsm). The pipette solution contained (in mM) 140 CsOH, 75 aspartic acid, 20 TEACI, 5 MgATP, 10 HEPES, 20 NaCl, 20 EGTA, and 10 CaCl2 (pH adjusted to 7.2 with CsOH; osmolarity adjusted to 290 ± 2 mOsm). The free intracellular Ca^2+ level in the patch pipette was 140 nM according to Maxchelator (RRID:SCR_000459) software (Bers, Patton, & Nuccitelli, 2010).
The measurement of current in the K^+‐free bath solution using a ramp voltage protocol at 20‐s intervals represented the first control, after which values were measured in the presence of one or more increasing concentrations of ORM‐11372 and finally upon exposure to 10‐mM NiCl2. The voltage protocol consisted of voltage ramps (at a rate of 100 mV·s^−1) with a holding potential of […], which changed to −100 mV and then returned to −40 mV. I NCX was defined as the Ni^2+‐sensitive current value. However, for rat ventricular myocytes, the magnitude of the inward current (forward mode) was particularly small and variable. […]

Assay [2] concerns the target T2, L‐type Ca^2+ channel current (I CaL) (Homo sapiens, UniProt Q13936).
T2 construct: I CaL was recorded from hiPSC‐derived CMs; host or cells: Cor.4U hiPSC-derived cardiomyocytes
As to the kind of experiment: L‐type calcium current (I CaL), patch‐clamp in hiPSC‐derived cardiomyocytes. In kind it is cell-based. To be noted: hiPSC‐CMs, 0 mV, read-out: inhibition of inward I CaL.
Excerpt: as §1
I CaL was recorded from hiPSC‐derived CMs (at room temperature, n = 2) and rat ventricular myocytes at 1 μM (n = 3; 5 cells) and at 10 μM (n = 4; 6 cells) in an extracellular solution supplemented with 4‐aminopyridine (3 mM) at 37 °C. […]

SMILES strings stand for the structures. Several values for one entry are separate records, joined by “and”; a condition that tells them apart may be missing. Equal values may be shown once. Read-outs that look alike come from different tables or passages of the source.

T2 sequence (Q13936 whole entry): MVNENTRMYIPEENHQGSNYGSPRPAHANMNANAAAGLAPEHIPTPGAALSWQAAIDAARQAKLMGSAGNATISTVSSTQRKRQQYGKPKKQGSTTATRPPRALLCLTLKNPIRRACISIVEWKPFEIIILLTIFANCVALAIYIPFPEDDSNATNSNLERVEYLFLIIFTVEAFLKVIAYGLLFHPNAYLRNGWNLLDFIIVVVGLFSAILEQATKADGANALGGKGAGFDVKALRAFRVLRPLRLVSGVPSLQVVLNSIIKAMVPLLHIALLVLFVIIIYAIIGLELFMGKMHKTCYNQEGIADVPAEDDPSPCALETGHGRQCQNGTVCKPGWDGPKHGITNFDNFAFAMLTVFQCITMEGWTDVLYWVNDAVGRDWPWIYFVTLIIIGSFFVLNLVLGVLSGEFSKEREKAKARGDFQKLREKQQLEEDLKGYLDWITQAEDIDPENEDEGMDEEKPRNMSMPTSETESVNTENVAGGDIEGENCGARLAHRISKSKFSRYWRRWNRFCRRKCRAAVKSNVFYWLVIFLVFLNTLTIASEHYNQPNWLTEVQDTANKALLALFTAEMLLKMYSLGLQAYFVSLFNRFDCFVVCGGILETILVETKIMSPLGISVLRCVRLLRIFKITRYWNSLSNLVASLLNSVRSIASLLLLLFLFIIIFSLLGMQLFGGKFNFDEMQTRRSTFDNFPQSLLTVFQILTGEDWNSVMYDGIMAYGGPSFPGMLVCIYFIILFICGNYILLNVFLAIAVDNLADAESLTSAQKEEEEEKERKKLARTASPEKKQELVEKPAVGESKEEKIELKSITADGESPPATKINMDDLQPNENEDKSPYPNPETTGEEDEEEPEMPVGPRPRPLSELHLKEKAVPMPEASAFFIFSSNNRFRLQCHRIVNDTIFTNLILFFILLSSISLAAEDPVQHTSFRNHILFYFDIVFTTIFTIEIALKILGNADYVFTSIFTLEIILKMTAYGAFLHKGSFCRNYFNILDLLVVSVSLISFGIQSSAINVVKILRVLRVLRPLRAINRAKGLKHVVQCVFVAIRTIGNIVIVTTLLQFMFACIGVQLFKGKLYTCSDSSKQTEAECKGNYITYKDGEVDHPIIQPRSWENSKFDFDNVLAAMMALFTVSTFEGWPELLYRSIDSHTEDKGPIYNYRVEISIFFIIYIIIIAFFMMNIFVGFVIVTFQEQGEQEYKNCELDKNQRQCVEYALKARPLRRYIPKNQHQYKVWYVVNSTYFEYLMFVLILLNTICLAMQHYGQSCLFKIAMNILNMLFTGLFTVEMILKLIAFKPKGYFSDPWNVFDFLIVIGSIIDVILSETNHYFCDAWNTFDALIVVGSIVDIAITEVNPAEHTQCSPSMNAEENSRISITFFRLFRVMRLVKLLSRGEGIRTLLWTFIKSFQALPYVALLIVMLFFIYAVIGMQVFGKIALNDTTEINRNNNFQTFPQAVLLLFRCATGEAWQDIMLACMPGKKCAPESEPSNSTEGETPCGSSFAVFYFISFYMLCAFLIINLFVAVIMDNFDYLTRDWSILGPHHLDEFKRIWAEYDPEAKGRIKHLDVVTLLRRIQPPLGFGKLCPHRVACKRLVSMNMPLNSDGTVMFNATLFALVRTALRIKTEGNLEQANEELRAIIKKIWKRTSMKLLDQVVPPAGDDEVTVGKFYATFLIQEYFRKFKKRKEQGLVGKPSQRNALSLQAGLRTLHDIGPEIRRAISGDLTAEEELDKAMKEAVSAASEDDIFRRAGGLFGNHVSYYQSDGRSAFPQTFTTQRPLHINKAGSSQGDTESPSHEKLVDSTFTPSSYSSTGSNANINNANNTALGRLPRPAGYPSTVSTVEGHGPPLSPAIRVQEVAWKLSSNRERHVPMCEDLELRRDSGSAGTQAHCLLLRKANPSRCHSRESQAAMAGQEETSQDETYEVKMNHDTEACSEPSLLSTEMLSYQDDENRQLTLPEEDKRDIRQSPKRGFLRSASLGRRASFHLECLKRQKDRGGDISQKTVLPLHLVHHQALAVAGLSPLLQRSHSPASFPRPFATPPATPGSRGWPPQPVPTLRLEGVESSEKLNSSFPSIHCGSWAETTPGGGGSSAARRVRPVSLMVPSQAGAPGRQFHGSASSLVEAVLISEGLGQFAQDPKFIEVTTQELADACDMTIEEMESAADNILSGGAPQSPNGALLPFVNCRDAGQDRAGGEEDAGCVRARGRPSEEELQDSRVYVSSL
T2 sequence (Q08289 whole entry partner): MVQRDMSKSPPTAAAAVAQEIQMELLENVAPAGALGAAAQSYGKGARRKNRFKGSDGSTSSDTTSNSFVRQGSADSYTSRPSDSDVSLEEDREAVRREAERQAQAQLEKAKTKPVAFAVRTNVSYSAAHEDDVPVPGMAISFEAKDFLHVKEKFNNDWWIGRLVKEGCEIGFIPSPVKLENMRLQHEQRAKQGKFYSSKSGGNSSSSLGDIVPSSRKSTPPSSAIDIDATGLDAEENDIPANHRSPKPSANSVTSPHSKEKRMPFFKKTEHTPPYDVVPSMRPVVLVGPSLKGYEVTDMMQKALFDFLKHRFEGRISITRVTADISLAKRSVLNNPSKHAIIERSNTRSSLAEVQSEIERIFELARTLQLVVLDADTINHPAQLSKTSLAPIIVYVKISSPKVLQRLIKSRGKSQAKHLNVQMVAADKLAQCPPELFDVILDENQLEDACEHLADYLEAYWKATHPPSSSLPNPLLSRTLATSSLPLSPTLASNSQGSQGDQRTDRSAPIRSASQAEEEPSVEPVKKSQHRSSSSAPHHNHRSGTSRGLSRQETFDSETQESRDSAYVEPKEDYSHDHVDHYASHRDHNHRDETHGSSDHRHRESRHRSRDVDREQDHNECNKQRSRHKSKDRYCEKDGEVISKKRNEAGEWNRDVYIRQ
T2 sequence (P54289 25-946 partner limits assumed): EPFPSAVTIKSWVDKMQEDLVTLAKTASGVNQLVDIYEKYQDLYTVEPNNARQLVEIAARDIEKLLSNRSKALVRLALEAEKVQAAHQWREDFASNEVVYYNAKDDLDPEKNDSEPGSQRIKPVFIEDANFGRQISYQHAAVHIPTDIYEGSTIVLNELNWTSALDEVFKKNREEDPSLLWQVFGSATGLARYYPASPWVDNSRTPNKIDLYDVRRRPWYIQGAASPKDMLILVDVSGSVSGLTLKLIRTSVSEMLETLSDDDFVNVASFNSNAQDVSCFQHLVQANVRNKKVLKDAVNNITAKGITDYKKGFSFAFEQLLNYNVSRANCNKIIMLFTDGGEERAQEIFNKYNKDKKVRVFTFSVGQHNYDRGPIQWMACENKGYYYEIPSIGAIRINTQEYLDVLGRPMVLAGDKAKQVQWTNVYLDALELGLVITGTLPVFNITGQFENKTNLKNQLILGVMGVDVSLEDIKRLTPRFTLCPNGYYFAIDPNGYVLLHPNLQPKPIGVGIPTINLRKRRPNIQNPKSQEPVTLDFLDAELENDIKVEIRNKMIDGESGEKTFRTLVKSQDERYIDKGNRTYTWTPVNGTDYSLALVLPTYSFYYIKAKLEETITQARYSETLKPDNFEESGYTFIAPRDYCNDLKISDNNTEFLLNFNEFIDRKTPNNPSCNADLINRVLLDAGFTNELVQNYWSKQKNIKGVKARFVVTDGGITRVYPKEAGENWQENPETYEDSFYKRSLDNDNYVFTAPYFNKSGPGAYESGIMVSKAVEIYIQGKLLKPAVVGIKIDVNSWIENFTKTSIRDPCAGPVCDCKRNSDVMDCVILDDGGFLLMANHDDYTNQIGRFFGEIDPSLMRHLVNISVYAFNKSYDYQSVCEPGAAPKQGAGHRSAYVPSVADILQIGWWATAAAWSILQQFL
T2 sequence (P54289 947-1103 partner limits assumed): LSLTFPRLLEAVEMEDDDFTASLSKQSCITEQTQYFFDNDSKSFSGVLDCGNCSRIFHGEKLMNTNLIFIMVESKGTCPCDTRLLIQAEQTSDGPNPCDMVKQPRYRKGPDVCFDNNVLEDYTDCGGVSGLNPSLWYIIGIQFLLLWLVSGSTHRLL

`Nc1cccc(-c2ccc(CNc3ccc(F)cc3)o2)c1` [ORM‐11372]: the inhibition at 0.004 µM in assay [1] (4 nM, read-out: in vitro NCX 1.1 current inhibition) was 34%. For the same molecule, the inhibition at 0.036 µM in assay [1] (36 nM, read-out: in vitro NCX 1.1 current inhibition) turned out to be 67%. In addition, the inhibition at 0.092 µM in assay [1] (92 nM, read-out: in vitro NCX 1.1 current inhibition) came to 79%. The inhibition at 0.351 µM in assay [1] (351 nM, read-out: in vitro NCX inhibition) turned out to be 90%. The IC50 is 10 nM in assay [1] (rat CMs, summarised (discussion), read-out: IC50 rat NCX 1.1 currents); 11.3 nM and 11 nM in assay [1] (rat primary ventricular CMs, read-out: IC50 outward I NCX (reverse mode)). Besides, the inhibition at 0.01 µM in assay [1] (rat ventricular CMs, 10 nM, altered conditions to enhance inward current, n=3, read-out: inhibition of inward I NCX (forward mode)) was 53.8 ± 3.9%. For the same molecule, in assay [2], the inhibition at 1 µM turned out to be 14.1%.
